According to patent publication US8962529B2, “Substituted picolinic acids, salts and acid derivatives thereof, and use thereof as herbicides” (Bayer Cropscience AG, priority 2010, dated 2015):

Key:
Type in all cases: in vivo
Veronica persica [1] = test: Pre-emergence herbicidal action against weed plants (greenhouse pot test); details: application rate 320 g/ha, scored visually after 3 weeks vs untreated controls, 100% = plants have died, 0% = like control plants
Excerpt: (§1) Seeds of mono- and dicotyledonous weed and crop plants are set out in wood fiber pots in sandy loam soil and covered with soil. The inventive compounds formulated in the form of wettable powders (WP) or as emulsion concentrates (EC) are then applied to the surface of the covering earth as an aqueous suspension or emulsion at a water application rate of 600 to 800 l/ha (converted) with addition of 0.2% wetting agent. After the treatment, the pots are placed in a greenhouse and kept under good growth conditions for the test plants. The damage to the test plants is scored visually after an experiment time of 3 weeks in comparison to untreated controls (herbicidal action in percent (%): 100% action=plants have died, 0% action=like control plants).

ABUTH = test: Post-emergence herbicidal action against weed plants (greenhouse pot test); details: one-leaf stage, application rate 320 g/ha, scored visually after about 3 weeks vs untreated controls, 100% = plants have died
Procedure: (§2) Seeds of mono- and dicotyledonous weed and crop plants are set out in wood fiber pots in sandy loam soil, covered with soil and cultivated in a greenhouse under good growth conditions. 2 to 3 weeks after sowing, the trial plants are treated at the one-leaf stage. The inventive compounds formulated in the form of wettable powders (WP) or as emulsion concentrates (EC) are then sprayed onto the green plant parts as an aqueous suspension or emulsion with a water application rate of 600 to 800 l/ha (converted) with addition of 0.2% wetting agent. After the trial plants have stood in the greenhouse under optimal growth conditions for about 3 weeks, the action of the preparations is scored visually in comparison to untreated controls (herbicidal action in percent (%): 100% action=plants have died, 0% action=like control plants).

Veronica persica [2] = test: as above; details: one-leaf stage, application rate 320 g/ha, scored visually after about 3 weeks vs untreated controls, 100% = plants have died
Procedure: as §2

Amaranthus retroflexus = test: Pre-emergence herbicidal action against weed plants (greenhouse pot test); details: application rate 320 g/ha, scored visually after 3 weeks vs untreated controls, 100% = plants have died, 0% = like control plants
Excerpt: as §1

Ipomoea purpurea = test: Post-emergence herbicidal action against weed plants (greenhouse pot test); details: one-leaf stage, application rate 320 g/ha, scored visually after about 3 weeks vs untreated controls, 100% = plants have died
Procedure: as §2

| SMILES | herbicidal action in percent, VERPE (Veronica persica [1]) | herbicidal action in percent, ABUTH (ABUTH) | herbicidal action in percent, VERPE (Veronica persica [2]) | herbicidal action in percent, AMARE (Amaranthus retroflexus) | herbicidal action in percent, PHBPU (Ipomoea purpurea) |
| --- | --- | --- | --- | --- | --- |
| COC(=O)c1nc(-c2ccc(Cl)c(C3CO3)c2F)cc(N)c1Cl (centres unmarked) [Example 9-618] | 100% | 80% | 90% | – | – |
| COC(=O)c1nc(-c2ccc(Cl)c(C3COC(C)(C)O3)c2F)cc(N)c1Cl (centres unmarked) [Example 9-842] | 100% | 80% | 100% | 90% | 90% |
